Here are results for 7 compounds from ChEMBL document CHEMBL1130571, “Synthesis and evaluation of novel-N-[2-(bis-aryl-methoxy)ethyl-N-aralkyl-,-alkanediamines as potent and selective dopamine reuptake inhibitors: Seco analogs of GBR12935 and GBR12909” (Bioorg Med Chem Lett, 1997).

Where a name gives a salt, the structure may show the parent alone.

The target in one experiment is Sodium-dependent dopamine transporter (Rattus norvegicus, UniProt P23977). Description: Compound was tested for its ability to inhibit the neurotransmitter dopamine-DA reuptake system using [3H]dopamine as radioligand.
Chain of Sodium-dependent dopamine transporter (P23977 whole entry): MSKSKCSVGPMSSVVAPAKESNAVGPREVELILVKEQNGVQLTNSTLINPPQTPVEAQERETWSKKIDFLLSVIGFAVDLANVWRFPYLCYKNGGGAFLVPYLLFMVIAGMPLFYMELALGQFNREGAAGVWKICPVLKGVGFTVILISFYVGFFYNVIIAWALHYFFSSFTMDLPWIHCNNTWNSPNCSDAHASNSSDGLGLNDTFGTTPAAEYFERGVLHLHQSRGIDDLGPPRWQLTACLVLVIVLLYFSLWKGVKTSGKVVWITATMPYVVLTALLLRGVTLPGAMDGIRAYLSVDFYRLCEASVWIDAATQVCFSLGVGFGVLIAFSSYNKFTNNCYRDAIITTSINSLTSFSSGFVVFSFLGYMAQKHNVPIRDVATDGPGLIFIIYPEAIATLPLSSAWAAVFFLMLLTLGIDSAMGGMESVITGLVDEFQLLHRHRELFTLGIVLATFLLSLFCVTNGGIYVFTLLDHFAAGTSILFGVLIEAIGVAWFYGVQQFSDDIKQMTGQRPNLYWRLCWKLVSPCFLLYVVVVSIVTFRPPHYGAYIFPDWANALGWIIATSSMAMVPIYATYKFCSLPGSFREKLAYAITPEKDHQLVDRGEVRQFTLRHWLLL
Turning to `CC(NC(C)(C)C)C(=O)c1cccc(Cl)c1` (stereo not given) [BUPROPION HYDROCHLORIDE], the IC50 came out at 1.23 µM. This lies in the single-digit micromolar range.
On to `Fc1ccc(C(OCCNCCNCCCc2ccccc2)c2ccc(F)cc2)cc1`, for which the IC50 is 0.049 µM.
The same measure, in the same setting: the value for `I/C=C/CN1CCN(CCOC(c2ccccc2)c2ccccc2)CC1` was 0.505 µM.
`c1ccc(CCCNCCNCCOC(c2ccccc2)c2ccccc2)cc1` had an IC50 of 1.23 µM.
Same read-out and setting: the value for `CN(CCCc1ccccc1)CCN(C)CCOC(c1ccc(F)cc1)c1ccc(F)cc1` was 0.01 µM.
The same measure, in the same setting: then `c1ccc(CCCNCCCNCCOC(c2ccccc2)c2ccccc2)cc1`, with 0.15 µM; and `I/C=C\CN1CCN(CCOC(c2ccccc2)c2ccccc2)CC1`, with 0.78 µM.

Another experiment deals with Norepinephrine transporter (Rattus norvegicus, UniProt Q9WTR4). The experiment can be described thus: Norepinephrine transporter activity was determined by the ability of compound to inhibit the neurotransmitter norepinephrine-NE reuptake system using [3H]norepinephrine as radioligand.
Chain of Norepinephrine transporter (Q9WTR4 whole entry): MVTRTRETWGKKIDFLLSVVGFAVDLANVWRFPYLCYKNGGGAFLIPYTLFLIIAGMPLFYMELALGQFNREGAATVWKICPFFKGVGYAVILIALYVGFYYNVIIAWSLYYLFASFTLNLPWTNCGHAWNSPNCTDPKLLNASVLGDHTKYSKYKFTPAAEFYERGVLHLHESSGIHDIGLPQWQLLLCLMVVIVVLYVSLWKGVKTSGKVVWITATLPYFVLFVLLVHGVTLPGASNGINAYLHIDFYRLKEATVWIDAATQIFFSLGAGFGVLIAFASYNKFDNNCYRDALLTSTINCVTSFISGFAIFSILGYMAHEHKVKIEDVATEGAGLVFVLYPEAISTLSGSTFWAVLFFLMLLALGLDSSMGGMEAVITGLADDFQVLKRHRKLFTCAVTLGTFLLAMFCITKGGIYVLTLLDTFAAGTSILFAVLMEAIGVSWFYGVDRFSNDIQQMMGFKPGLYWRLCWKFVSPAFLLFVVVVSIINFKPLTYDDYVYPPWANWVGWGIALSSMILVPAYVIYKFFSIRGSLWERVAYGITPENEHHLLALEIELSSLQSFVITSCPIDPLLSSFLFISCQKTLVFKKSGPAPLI
The compound `Fc1ccc(C(OCCNCCNCCCc2ccccc2)c2ccc(F)cc2)cc1` displayed an IC50 of over 10 µM.
In turn, `I/C=C/CN1CCN(CCOC(c2ccccc2)c2ccccc2)CC1` registered an IC50 of over 10 µM.
As to `c1ccc(CCCNCCNCCOC(c2ccccc2)c2ccccc2)cc1`, the IC50 is over 10 µM.
With `CN(CCCc1ccccc1)CCN(C)CCOC(c1ccc(F)cc1)c1ccc(F)cc1`, the IC50 is over 10 µM.
Same read-out and setting: then `c1ccc(CCCNCCCNCCOC(c2ccccc2)c2ccccc2)cc1`, with over 10 µM.
In turn, `I/C=C\CN1CCN(CCOC(c2ccccc2)c2ccccc2)CC1` returned an IC50 of 2.19 µM.

The target in the next experiment is Sodium-dependent serotonin transporter (Rattus norvegicus, UniProt P31652). The experiment can be described thus: Compound was tested for its ability to inhibit the neurotransmitter serotonin-5-HT reuptake system using [3H]5-HT as radioligand.
Chain of Sodium-dependent serotonin transporter (P31652 whole entry): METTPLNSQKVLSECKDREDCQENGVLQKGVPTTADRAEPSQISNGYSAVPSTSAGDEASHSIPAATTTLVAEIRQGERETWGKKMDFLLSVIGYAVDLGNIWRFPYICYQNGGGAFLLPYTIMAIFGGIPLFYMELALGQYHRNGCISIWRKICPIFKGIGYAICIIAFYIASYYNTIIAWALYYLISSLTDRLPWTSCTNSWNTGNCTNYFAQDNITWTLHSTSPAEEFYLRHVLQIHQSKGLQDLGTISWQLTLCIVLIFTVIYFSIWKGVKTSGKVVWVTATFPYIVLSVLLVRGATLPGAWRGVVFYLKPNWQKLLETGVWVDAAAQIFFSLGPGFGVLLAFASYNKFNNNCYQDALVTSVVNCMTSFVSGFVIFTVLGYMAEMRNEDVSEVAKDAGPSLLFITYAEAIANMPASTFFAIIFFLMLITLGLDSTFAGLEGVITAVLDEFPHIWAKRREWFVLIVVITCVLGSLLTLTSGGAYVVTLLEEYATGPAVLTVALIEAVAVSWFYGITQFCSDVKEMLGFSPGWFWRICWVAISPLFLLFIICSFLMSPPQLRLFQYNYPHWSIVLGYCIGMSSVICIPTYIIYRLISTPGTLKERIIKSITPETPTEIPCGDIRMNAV
As for `Fc1ccc(C(OCCNCCNCCCc2ccccc2)c2ccc(F)cc2)cc1`, the half-maximal inhibitory concentration (IC50) worked out at 0.5 µM.
The same measure, in the same setting: then `I/C=C/CN1CCN(CCOC(c2ccccc2)c2ccccc2)CC1`, with over 10 µM.
The same measure, in the same setting: then `c1ccc(CCCNCCNCCOC(c2ccccc2)c2ccccc2)cc1`, with over 10 µM; and `CN(CCCc1ccccc1)CCN(C)CCOC(c1ccc(F)cc1)c1ccc(F)cc1`, with 1.5 µM.
The same measure, in the same setting: then `c1ccc(CCCNCCCNCCOC(c2ccccc2)c2ccccc2)cc1`, with over 10 µM; and `I/C=C\CN1CCN(CCOC(c2ccccc2)c2ccccc2)CC1`, with over 10 µM.

Test system in a further experiment: not listed separately
The experiment can be described thus: Selectivity of compound towards DA transporter to that of NE transporter.
With `Fc1ccc(C(OCCNCCNCCCc2ccccc2)c2ccc(F)cc2)cc1`, the Selectivity was over 200.
For the compound `I/C=C/CN1CCN(CCOC(c2ccccc2)c2ccccc2)CC1`, the Selectivity is over 20.
Still for that read-out and setting: the value for `c1ccc(CCCNCCNCCOC(c2ccccc2)c2ccccc2)cc1` was over 8; that for `CN(CCCc1ccccc1)CCN(C)CCOC(c1ccc(F)cc1)c1ccc(F)cc1` was over 1000.
On the same count and under the same terms, the value for `c1ccc(CCCNCCCNCCOC(c2ccccc2)c2ccccc2)cc1` was over 65; that for `I/C=C\CN1CCN(CCOC(c2ccccc2)c2ccccc2)CC1` was 3.
